As usually defined, the IC50 is the midpoint of a concentration-inhibition curve. Low readings indicate greater potency in that assay, high ones weaker potency in that assay.

A short description of this experiment: Inhibition of LPA-induced intracellular Ca2+ concentration increase (FLIPR). In kind it is cell-based. The following applies: LPA final concentration 5 μM; rat hepatic stellate cell derived myofibroblast like clone; Fluo-3, FLIPR. The source says:
(1) Establishment of Myofibroblast Like Cell Strain Derived from Rat Hepatic Stellate Cell Fraction A stellate cell fraction was obtained from the liver of male Wistar rat according to a conventional method (European J. Biochem., 1993, vol. 213, p. 815). After subculture for several generations, the cell was cloned by limiting dilution. Well grown 24 clones that formed colonies were isolated. These clones were stained with αSMA antibody and confirmed to be all positive and to have Myofibroblast like properties. […] (2) Measurement of Cell Activation (Intracellular Ca^2+ Concentration Increasing Action)-Inhibitory Activity The above-mentioned cells were cultured overnight in a 384 well plate at 24,000 cells/well and the medium was removed. An assay buffer (0.1% BSA, 20 mM HEPES, 1×HBSS, 2.5 mM Probenecid) containing 4 μM of Fluo-3, AM (Biotium) was added, and the cells were stained at 37° C. for 1 hour. Following the buffer containing the dye reagent was removed, and an assay buffer was added, intracellular Ca^2+ concentration was measured with FLIPR (Molecular Devices). Adding a test substance and LPA at the final concentration of 5 μM, the inhibitory action of the test substance on the increase in the intracellular Ca^2+ concentration by LPA was examined. The increase in the intracellular Ca^2+ concentration by LPA addition without test substance was taken as 100%, that without the addition of LPA was taken as 0%, and the substrate's concentration (IC50) at inhibiting increase in the intracellular Ca^2+ concentration by 50% was determined.

On to `CC(OC(=O)Nc1conc1-c1ccc(CSCCC(=O)O)cc1)c1ccccc1Cl` (centres unmarked) [Compound 2, 3-(4-{4-[1-(2-chlorophenyl)ethoxycarbonylamino]-3-isoxazolyl}benzylsulfanyl)propionic acid], for which half-maximal inhibition (IC50) required 0.051 µM.

As to `C[C@@H](OC(=O)Nc1conc1-c1ccc(CSCCC(=O)O)cc1)c1ccccc1Cl` [Compound 3, 3-(4-{4-[(1R)-1-(2-chlorophenyl)ethoxycarbonylamino]-3-isoxazolyl}benzylsulfanyl)propionic acid], 0.022 µM corresponded to half-maximal inhibition (IC50).

Take `CC(=O)N[C@@H](CSCc1ccc(-c2nocc2NC(=O)OC(C)c2ccccc2Cl)cc1)C(=O)O` (stereo partly drawn) [Compound 4, N-acetyl-S-(4-{4-[1-(2-chlorophenyl)ethoxycarbonylamino]-3-isoxazolyl}benzyl)-L-cysteine]: the IC50 amounted to 0.065 µM. In turn, `CC(OC(=O)Nc1conc1-c1ccc(CSCCS(=O)(=O)O)cc1)c1ccccc1Cl` (centres unmarked) [Compound 5, 2-(4-{4-[1-(2-chlorophenyl)ethoxycarbonylamino]-3-isoxazolyl}benzylsulfanyl)ethanesulfonic acid] showed an IC50 of 0.074 µM. With `C[C@@H](OC(=O)Nc1conc1-c1ccc(CSCCC(=O)O)cc1)c1ccccc1Br` [Compound 6, 3-(4-{4-[(1R)-1-(2-bromophenyl)ethoxycarbonylamino]-3-isoxazolyl}benzylsulfanyl)propionic acid], the IC50 came to 0.022 µM.

For the compound `CC(=O)N[C@@H](CSCc1ccc(-c2nocc2NC(=O)O[C@H](C)c2ccccc2Br)cc1)C(=O)O` [Compound 7, N-acetyl-S-(4-{4-[(1R)-1-(2-bromophenyl)-ethoxycarbonylamino]-3-isoxazolyl}benzyl)-L-cysteine], it took 0.059 µM to reach half-maximal inhibition (IC50). To `CC(OC(=O)Nc1conc1-c1ccc(CSCCC(=O)O)cc1)C1=C(Cl)CCC1` (centres unmarked) [Compound 8, 3-(4-{4-[1-(2-chloro-1-cyclopentenyl)ethoxycarbonylamino]-3-isoxazolyl}benzylsulfanyl)propionic acid] belongs 0.029 µM; to `C[C@@H](OC(=O)Nc1conc1-c1ccc(CSCCC(=O)O)cc1)C1=C(Cl)CCC1` [Compound 9, 3-(4-{4-[(1R)-1-(2-chloro-1-cyclopentenyl)ethoxycarbonyl-amino]-3-isoxazolyl}benzylsulfanyl)propionic acid], 0.026 µM. With `CC(OC(=O)Nc1conc1-c1ccc(CSCCC(=O)O)cc1)C1=C(Cl)CCCC1` (centres unmarked) [Compound 10, 3-(4-{4-[1-(2-chloro-1-cyclohexenyl)ethoxycarbonylamino]-3-isoxazolyl}benzylsulfanyl)propionic acid], half-maximal inhibition (IC50) required 0.056 µM. The result for `CC(OC(=O)Nc1conc1-c1ccc(CS(=O)(=O)CCC(=O)O)cc1)c1ccccc1Cl` (centres unmarked) [Compound 11, 3-(4-{4-[1-(2-chlorophenyl)ethoxycarbonylamino]-3-isoxazolyl}benzylsulfonyl)propionic acid] reads 0.115 µM; that for `C[C@@H](OC(=O)Nc1conc1-c1ccc(CS(=O)(=O)CCC(=O)O)cc1)c1ccccc1Br` [Compound 12, 3-(4-{4-[(1R)-1-(2-bromophenyl)ethoxycarbonylamino]-3-isoxazolyl}benzylsulfonyl)propionic acid], 0.068 µM. The result for `CC(OC(=O)Nc1conc1-c1ccc(CS(=O)(=O)CCC(=O)O)cc1)C1=C(Cl)CCCC1` (centres unmarked) [Compound 13, 3-(4-{4-[1-(2-chloro-1-cyclohexenyl)ethoxycarbonylamino]-3-isoxazolyl}benzylsulfonyl)propionic acid] reads 0.104 µM; that for `CC(OC(=O)Nc1conc1-c1ccc(CCSCC(=O)O)cc1)c1ccccc1Cl` (centres unmarked) [Compound 14, {[2-(4-{4-[1-(2-chlorophenyl)ethoxycarbonylamino]-3-isoxazolyl}phenyl)ethyl]thio}acetic acid], 0.146 µM.

`CC(OC(=O)Nc1conc1-c1ccc(CCSCCC(=O)O)cc1)c1ccccc1Cl` (centres unmarked) [Compound 15, {3-[2-(4-{4-[1-(2-chlorophenyl)ethoxycarbonylamino]-3-isoxazolyl}phenyl)ethyl]thio}propionic acid] registered an IC50 of 0.044 µM.

`CC(OC(=O)Nc1conc1-c1ccc(CCSCC(=O)O)cc1)C1=C(Cl)CCC1` (centres unmarked) [Compound 16, {[2-(4-{4-[1-(2-chlorocyclopentenyl)ethoxycarbonylamino]-3-isoxazolyl}phenyl)ethyl]thio}acetic acid] returned an IC50 of 0.032 µM. With `CC(OC(=O)Nc1conc1-c1ccc(CCSCC(=O)O)cc1)C1=C(Cl)CCCC1` (centres unmarked) [Compound 17, {[2-(4-{4-[1-(2-chlorocyclohexenyl)ethoxycarbonylamino]-3-isoxazolyl}phenyl)ethyl]thio}acetic acid], inhibition was half-maximal at 0.062 µM (IC50). To `CC(OC(=O)Nc1cnoc1-c1ccc(CSCCC(=O)O)cc1)c1ccccc1Cl` (centres unmarked) [Compound 18, 3-(4-{4-[1-(2-chlorophenyl)ethoxycarbonylamino]-5-isoxazolyl}benzylsulfanyl)propionic acid] belongs 0.081 µM. The result for `CC(OC(=O)Nc1conc1-c1ccc(CCCCC(=O)O)cc1)c1ccccc1Cl` (centres unmarked) [Compound 19, 5-(4-{4-[1-(2-chlorophenyl)ethoxycarbonylamino]-3-isoxazolyl}phenyl)-4-pentanoic acid] reads 0.047 µM; that for `CC(OC(=O)Nc1conc1-c1ccc(COC(=O)NCCC(=O)O)cc1)c1ccccc1Cl` (centres unmarked) [Compound 20, 3-(4-{4-[1-(2-chlorophenyl)ethoxycarbonylamino]-3-isoxazolyl}benzyloxycarbonylamino)propionic acid], 0.083 µM. As for `CC(OC(=O)Nc1conc1-c1ccc(NC(=O)C[C@@H](O)C(=O)O)cc1)c1ccccc1Cl` (stereo partly drawn) [Compound 21, 4-[(4-{4-[1-(2-chlorophenyl)ethoxycarbonylamino]-3-isoxazolyl}phenyl)amino]-(2R)-2-hydroxy-4-oxobutanoic acid], inhibition was half-maximal at 0.084 µM (IC50). `CC(=O)Oc1ccc(-c2nocc2NC(=O)OC(C)c2ccccc2Cl)cc1` (centres unmarked) [Compound 22, 4-[4-({[1-(2-chlorophenyl)ethoxy]carbonyl}amino)-3-isoxazolyl]phenyl acetate]: the IC50 was found to be 0.14 µM.

`CC(OC(=O)Nc1conc1-c1ccc(O)cc1)c1ccccc1Cl` (centres unmarked) [Compound 23, 1-(2-chlorophenyl)ethyl 3-(4-hydroxyphenyl)-4-isoxazolylcarbamate] displayed an IC50 of 0.116 µM. To `CC(OC(=O)Nc1conc1-c1ccc(OCCCCC(=O)O)cc1)c1ccccc1Cl` (centres unmarked) [Compound 24, 5-(4-{4-[1-(2-chlorophenyl)ethoxycarbonylamino]-3-isoxazolyl}phenoxy)pentanoic acid] belongs 0.131 µM; to `CC(OC(=O)Nc1conc1-c1ccc(NC(=O)CCC(=O)O)cc1)c1ccccc1Cl` (centres unmarked) [Compound 25, 4-[(4-{4-[1-(2-chlorophenyl)ethoxycarbonylamino]-3-isoxazolyl}phenyl)amino]-4-oxobutanoic acid], 0.073 µM; to `CC(=O)O[C@H](CC(=O)Nc1ccc(-c2nocc2NC(=O)OC(C)c2ccccc2Cl)cc1)C(=O)O` (stereo partly drawn) [Compound 26, (2R)-2-acetoxy-4-[(4-{4-[1-(2-chlorophenyl)ethoxy-carbonylamino]-3-isoxazolyl}phenyl)amino]-4-oxobutanoic acid], 0.141 µM. In turn, `C[C@@H](OC(=O)Nc1conc1-c1ccc(CCSCC(=O)O)cc1)c1ccccc1Cl` [Compound 27, {[2-(4-{4-[(1R)-1-(2-chlorophenyl)ethoxycarbonylamino]-3-isoxazolyl}phenyl)ethyl]thio}acetic acid] came in with an IC50 of 0.019 µM. The result for `C[C@@H](OC(=O)Nc1conc1-c1ccc(CS(=O)(=O)CCC(=O)O)cc1)c1ccccc1Cl` [Compound 28, 3-(4-{4-[(1R)-1-(2-chlorophenyl)ethoxycarbonylamino]-3-isoxazolyl}benzylsulfonyl)propionic acid] reads 0.036 µM. The result for `C[C@@H](OC(=O)Nc1conc1-c1ccc(CCSCCC(=O)O)cc1)c1ccccc1Cl` [Compound 29, {3-[2-(4-{4-[(1R)-1-(2-chlorophenyl)ethoxycarbonylamino]-3-isoxazolyl}phenyl)ethyl]thio}propionic acid] reads 0.029 µM; that for `C[C@@H](OC(=O)Nc1conc1-c1ccc(/C=C/CCC(=O)O)cc1)c1ccccc1Cl` [Compound 30, 5-(4-{4-[(1R)-1-(2-chlorophenyl)ethoxycarbonylamino]-3-isoxazolyl}phenyl)-4-pentenoic acid], 0.107 µM. Consider `C[C@@H](OC(=O)Nc1conc1-c1ccc(CCCCC(=O)O)cc1)c1ccccc1Cl` [Compound 31, 5-(4-{4-[(1R)-1-(2-chlorophenyl)ethoxycarbonylamino]-3-isoxazolyl}phenyl)-4-pentanoic acid], for which the IC50 was determined as 0.076 µM. To `C[C@@H](OC(=O)Nc1conc1-c1ccc(CCCCCC(=O)O)cc1)c1ccccc1Cl` [Compound 32, 6-(4-{4-[(1R)-1-(2-chlorophenyl)ethoxycarbonylamino]-3-isoxazolyl}phenyl)hexanoic acid] belongs 0.114 µM; to `CC(OC(=O)Nc1conc1-c1ccc(CCC(C)(C)CC(=O)O)cc1)c1ccccc1Cl` (centres unmarked) [Compound 33, 5-(4-{4-[1-(2-chlorophenyl)ethoxycarbonylamino]-3-isoxazolyl}phenyl)-3,3-dimethylpentanoic acid], 0.119 µM.

Values taken from patent publication US7517996B2, “Azole compound” (Ajinomoto Co., Inc., priority 2003, dated 2009).
